The values that follow come from ChEMBL document CHEMBL1156010, “Novel CGRP receptor antagonists through a design strategy of target simplification with addition of molecular flexibility” (Bioorg Med Chem Lett, 2009).

The structures appear in SMILES notation.

For the first experiment, the target named is T1, Calcitonin gene-related peptide type 1 receptor (Homo sapiens, UniProt O60894+Q16602). Description: Displacement of [125I]hCGRP from human cloned CGRP receptor expressed in HEK293 cells. Type of experiment: cell-based.
T1 sequence (Q16602 whole entry, one chain of several): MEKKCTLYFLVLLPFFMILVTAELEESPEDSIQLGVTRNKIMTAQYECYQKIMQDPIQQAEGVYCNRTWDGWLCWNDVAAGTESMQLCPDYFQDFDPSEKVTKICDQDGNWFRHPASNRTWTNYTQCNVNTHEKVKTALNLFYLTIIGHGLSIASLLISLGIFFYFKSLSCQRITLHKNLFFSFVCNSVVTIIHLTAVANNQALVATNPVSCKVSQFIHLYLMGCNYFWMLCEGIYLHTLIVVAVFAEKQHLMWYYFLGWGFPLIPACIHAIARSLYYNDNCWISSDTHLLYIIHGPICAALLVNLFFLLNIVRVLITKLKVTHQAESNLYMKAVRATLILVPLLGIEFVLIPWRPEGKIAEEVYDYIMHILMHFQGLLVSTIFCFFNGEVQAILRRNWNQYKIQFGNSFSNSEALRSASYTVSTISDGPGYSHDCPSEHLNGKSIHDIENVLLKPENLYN
Take `C[C@@H](c1ccccc1)N(CC(=O)Nc1ccc2c(c1)C[C@@]1(C2)C(=O)NC(=O)N1C)C(=O)C(C)(C)C`: the Ki stood at 56 nM.
`CN1C(=O)NC(=O)[C@@]12Cc1ccc(NC(=O)CN(Cc3cc(F)cc(F)c3)C(=O)C(C)(C)C)cc1C2`: the inhibitory constant (Ki) was 0.55 nM.
Regarding `CN1C(=O)NC(=O)[C@@]12Cc1ccc(NC(=O)CN(Cc3cc(Cl)cc(Cl)c3)C(=O)C(C)(C)C)cc1C2`, the inhibition constant Ki worked out at 4.4 nM.
For `C[C@H](c1cc(F)cc(F)c1)N(CC(=O)Nc1ccc2c(c1)C[C@@]1(C2)C(=O)NC(=O)N1C)C(=O)C(C)(C)C`, the Ki stood at 0.26 nM.
On to `NCC12CC(=O)Nc3cccc(c31)N(Cc1ccc3cc4c(cc3n1)C[C@]1(C4)C(=O)Nc3ncccc31)C2=O` (stereo partly drawn), for which the Ki came to 0.13 nM.
Same read-out and setting: as for `CN1C(=O)NC(=O)[C@@]12Cc1ccc(NC(=O)CN(Cc3cc(F)cc(Cl)c3)C(=O)C(C)(C)C)cc1C2`, the figure is 1.2 nM; as for `C[C@H](c1ccccc1)N(CC(=O)Nc1ccc2c(c1)C[C@@]1(C2)C(=O)NC(=O)N1C)C(=O)C(C)(C)C`, 0.83 nM.
On to `CC1(C)CC[C@@H](c2c(F)cccc2F)N(CC(=O)Nc2ccc3c(c2)C[C@]2(C3)C(=O)Nc3ncccc32)C1=O`, for which the Ki is 0.035 nM.
For `CN1C(=O)NC(=O)C12Cc1ccc(NC(=O)CN(Cc3cccc(Cl)c3)C(=O)C(C)(C)C)cc1C2` (racemic), the Ki came to 1.8 nM.
As for `Cc1cccc(CN(CC(=O)Nc2ccc3c(c2)CC2(C3)C(=O)NC(=O)N2C)C(=O)C(C)(C)C)c1` (racemic), the Ki was 7.9 nM.
In the case of `CN1C(=O)NC(=O)C12Cc1ccc(NC(=O)CN(Cc3ccc(F)cc3)C(=O)C(C)(C)C)cc1C2` (racemic), the Ki was 3.7 nM.
In the case of `COc1cccc(CN(CC(=O)Nc2ccc3c(c2)CC2(C3)C(=O)NC(=O)N2C)C(=O)C(C)(C)C)c1` (racemic), the inhibition constant (Ki) is 45 nM.
With `CN1C(=O)NC(=O)C12Cc1ccc(NC(=O)CN(Cc3ccccc3F)C(=O)C(C)(C)C)cc1C2` (racemic), the Ki came to 14 nM.
Still for that read-out and setting: as for `CN1C(=O)NC(=O)C12Cc1ccc(NC(=O)CN(Cc3cccc(F)c3)C(=O)C(C)(C)C)cc1C2` (racemic), the figure is 1.6 nM; as for `CN1C(=O)NC(=O)C12Cc1ccc(NC(=O)CN(Cc3cccc(C#N)c3)C(=O)C(C)(C)C)cc1C2` (racemic), 23 nM.
In the case of `CN1C(=O)NC(=O)C12Cc1ccc(NC(=O)CN(Cc3ccc(C(F)(F)F)cc3)C(=O)C(C)(C)C)cc1C2` (racemic), the Ki was found to be 25 nM.

The target in another experiment is T1, Calcitonin gene-related peptide type 1 receptor. Description: Antagonist activity at human cloned CGRP receptor expressed in HEK293 cells assessed as inhibition of CGRP-induced cAMP production. Type of experiment: functional, cell-based.
For the compound `NCC12CC(=O)Nc3cccc(c31)N(Cc1ccc3cc4c(cc3n1)C[C@]1(C4)C(=O)Nc3ncccc31)C2=O` (stereo partly drawn), the IC50 stood at 0.62 nM.
As for `CC1(C)CC[C@@H](c2c(F)cccc2F)N(CC(=O)Nc2ccc3c(c2)C[C@]2(C3)C(=O)Nc3ncccc32)C1=O`, the concentration for half-maximal inhibition (IC50) was 0.12 nM.
